These results are taken from patent US20240109880A1 (Insilico Medicine IP Limited, priority 2021, published 2024).

One may read the efflux ratio as the permeability from basolateral to apical divided by that in the opposite direction, in the common usage. For orientation: Papp A→B means how fast a substance crosses the layer from the apical side. As a reminder, the IC50 is the concentration that gives 50% inhibition. Low values mean higher potency, high ones lower potency. The term solubility (kinetic) denotes solubility judged after dilution from a stock solution rather than from solid.

In brackets after ≈: the same amount, converted by molar mass.

A short description of series [1]: Permeability in Caco-2 Assay. Type of series: in vitro ADME. To be noted: human, pH 7.4, 2 hours; for efflux ratio at 2 h, 2 μM: Caco-2, 2.00 μM bi-directionally; for Papp A→B at 2 h, 2 μM: Caco-2, 2.00 μM, pH 7.40. As for the experimental part:
Permeability of test compounds was determined in Caco-2 Assay. Caco-2 cells purchased from ATCC were seeded onto […] (PET) in 96-well Corning Insert plates at 1×10^5 cells/cm2, and refreshed medium every 4-5 days until to the 21st to 28th day for confluent cell monolayer formation. The transport buffer in the study was HBSS with 10.0 mM HEPES at pH 7.40±0.05. Test compound was tested at 2.00 μM bi-directionally in duplicate. Digoxin was tested at 10.0 μM bi-directionally in duplicate, while nadolol and metoprolol were tested at 2.00 μM in A to B direction in duplicate. Final DMSO concentration was adjusted to less than 1%. The plate was incubated for 2 hours in CO2 incubator at 37±1° C., with 5% CO2 at saturated humidity without shaking. And all samples after mixed with acetonitrile containing internal standard were centrifuged at 3200×g for 10 min. For nadolol and metoprolol, 200 μL supernatant solution was diluted with 600 μL ultra-pure water for LC-MS/MS analysis. For digoxin and test compounds, 200 μL supernatant solution was diluted with 200 μL ultra-pure water for LC-MS/MS analysis. Concentrations of test and control compounds in starting solution, donor solution, and receiver solution were quantified by LC-MS/MS methodologies, using peak area ratio of analyte/internal standard. After transport assay, lucifer yellow rejection assay was applied to determine the Caco-2 cell monolayer integrity.
In general terms: Caco-2 cells form a polarised layer with tight junctions and transporters.

The target of a further series is KAT6A (Homo sapiens (Human), UniProt Q92794). Kind of series: KAT6A Biochemical Assay (radiometric 384-well, [3H]-Ac-CoA, biotinylated H4(1-30) peptide). To be noted: 5 nM KAT6A enzyme solution (2×), 60 min reaction at room temperature. How it is done: Inhibition of KAT6A enzymatic activity by test compounds was determined using a radiometric 384-well format assay. A 10-point serial dilution of the test compounds were conducted in DMSO and then a volume of 200 nL was transferred into 384-well assay plate by Echo (Labcyte). 10 μL of 2× enzyme solution (5 nM KAT6A (Active Motif) in assay buffer (50 mM Tris-HCl pH 8.0, 50 mM KCl, 0.1 mM EDTA, 5% glycerol, 1 mM DTT)) was dispensed into assay plate except for low control wells, in which 10 μL of assay buffer was transferred. The plate was incubated at room temperature for 15 min before addition of 10 μL of 2×[^3H]-acetyl coenzyme A (Ac-CoA) and substrate peptide mix solution (500 nM (KAT6A) [^3H]-Ac-CoA (PerkinElmer) and 800 nM (KAT6A) biotinylated H4(1-30) peptide (GL Biochem) in assay buffer) to each well to start reaction. The plate was incubated at room temperature for 60 min (KAT6A), and then the reaction was stopped by adding 10 μL of stop solution (cold Ac-CoA (Cayman) in 1× assay buffer). 25 μL of reaction in each well was transferred to Flashplate (PerkinElmer) and incubated for another 1 hour at room temperature. The plate was read on Microbeta and the inhibition percentage of each compound treated well was calculated based on the equation in h %=(Max−sample)/(Max−Min)*100 where Max is signal from high control wells with enzyme, and Min is signal from low control wells with assay buffer only. The in h % data were further fit in XL-Fit to obtain IC50 values using a 4-parameter logistic (4PL) sigmoidal curve model.

A short description of series [2]: Kinetic solubility in 50 mM phosphate buffer (pH 7.4). Type of series: physicochemical. As to conditions: aqueous buffer, kinetic from dmso stock; 50 mM phosphate buffer pH 7.4, 24 hours at room temperature. As for the experimental part: 10 μL of 10 mM in DMSO of test and control compounds was added into lower chambers of whatman miniuniprep vials, respectively. 490 μL of 50 mM PB (pH 7.4) was added into lower chambers of the whatman miniuniprep vials, respectively. The solubility samples were vortexted for at least 2 minutes. The miniuniprep vials were shaken on a shaker for 24 hours at room temperature at the speed of 800 rpm and then centrifuged for 20 minutes (eg. 4000 rpm). The miniunipreps were compressed to prepare the filtrates for injection into HPLC system to calculate the concentration with standard curve.

Chain of KAT6A (Q92794 whole entry): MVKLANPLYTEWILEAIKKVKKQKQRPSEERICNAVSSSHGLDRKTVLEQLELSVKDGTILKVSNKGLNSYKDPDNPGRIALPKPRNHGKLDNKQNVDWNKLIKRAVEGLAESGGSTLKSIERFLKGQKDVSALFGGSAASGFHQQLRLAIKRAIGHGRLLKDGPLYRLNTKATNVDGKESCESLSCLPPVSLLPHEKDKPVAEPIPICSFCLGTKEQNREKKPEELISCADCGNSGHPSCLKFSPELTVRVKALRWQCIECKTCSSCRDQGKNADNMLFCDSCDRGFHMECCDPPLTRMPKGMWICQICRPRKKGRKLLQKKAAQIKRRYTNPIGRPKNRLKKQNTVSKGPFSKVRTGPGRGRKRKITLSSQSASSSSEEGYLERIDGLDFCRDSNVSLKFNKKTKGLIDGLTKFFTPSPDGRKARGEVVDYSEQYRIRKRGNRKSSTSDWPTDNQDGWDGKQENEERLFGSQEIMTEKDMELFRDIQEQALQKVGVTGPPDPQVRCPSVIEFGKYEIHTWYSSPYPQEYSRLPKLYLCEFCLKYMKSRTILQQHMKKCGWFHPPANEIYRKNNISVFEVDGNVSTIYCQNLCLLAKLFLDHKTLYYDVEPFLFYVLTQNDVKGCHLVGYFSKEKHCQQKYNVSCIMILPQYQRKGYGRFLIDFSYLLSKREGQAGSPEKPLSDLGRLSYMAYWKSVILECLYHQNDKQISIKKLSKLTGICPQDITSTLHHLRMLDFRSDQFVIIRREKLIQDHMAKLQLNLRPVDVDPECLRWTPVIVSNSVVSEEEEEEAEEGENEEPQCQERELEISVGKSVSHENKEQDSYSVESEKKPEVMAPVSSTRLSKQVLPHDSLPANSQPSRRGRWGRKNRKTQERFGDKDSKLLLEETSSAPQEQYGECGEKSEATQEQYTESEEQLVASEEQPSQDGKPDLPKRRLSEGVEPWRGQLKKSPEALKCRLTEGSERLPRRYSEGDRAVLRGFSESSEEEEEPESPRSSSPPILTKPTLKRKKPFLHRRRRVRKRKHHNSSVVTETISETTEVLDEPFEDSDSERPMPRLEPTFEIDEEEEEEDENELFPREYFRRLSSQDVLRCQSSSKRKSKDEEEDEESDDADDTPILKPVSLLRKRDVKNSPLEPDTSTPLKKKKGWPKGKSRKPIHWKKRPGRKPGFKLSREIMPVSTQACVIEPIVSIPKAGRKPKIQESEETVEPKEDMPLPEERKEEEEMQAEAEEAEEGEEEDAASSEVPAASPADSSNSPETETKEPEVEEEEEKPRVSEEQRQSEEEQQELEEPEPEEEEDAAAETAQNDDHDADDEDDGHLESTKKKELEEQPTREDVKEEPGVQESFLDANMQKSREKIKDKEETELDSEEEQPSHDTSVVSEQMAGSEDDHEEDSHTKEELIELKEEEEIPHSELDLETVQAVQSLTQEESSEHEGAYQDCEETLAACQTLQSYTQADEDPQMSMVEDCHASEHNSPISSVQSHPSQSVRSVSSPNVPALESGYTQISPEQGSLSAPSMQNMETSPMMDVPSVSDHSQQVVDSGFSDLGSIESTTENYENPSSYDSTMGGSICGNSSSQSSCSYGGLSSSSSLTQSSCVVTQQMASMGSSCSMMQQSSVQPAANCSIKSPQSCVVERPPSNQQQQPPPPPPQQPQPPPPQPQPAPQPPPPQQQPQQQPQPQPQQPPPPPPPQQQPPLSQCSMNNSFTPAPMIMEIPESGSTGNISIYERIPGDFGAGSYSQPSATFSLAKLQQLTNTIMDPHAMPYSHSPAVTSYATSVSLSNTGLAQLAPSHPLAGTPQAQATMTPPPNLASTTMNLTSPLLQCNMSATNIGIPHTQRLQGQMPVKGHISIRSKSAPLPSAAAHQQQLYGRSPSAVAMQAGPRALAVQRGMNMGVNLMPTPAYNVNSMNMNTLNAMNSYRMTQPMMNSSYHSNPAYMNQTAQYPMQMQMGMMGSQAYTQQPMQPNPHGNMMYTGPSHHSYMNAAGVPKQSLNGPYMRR

With `COc1ccccc1S(=O)(=O)Nc1noc2cc(Oc3nccs3)c3c(c12)OCCCC3` [Compound 63], in series [1], the efflux ratio at 2 h, 2 μM is 2.88 and the Papp A→B at 2 h, 2 μM is 6.48 ×10⁻⁶ cm/s. The molecule further showed an IC50 against KAT6A of under 10 nM.

As to `COc1ccnc(OC)c1S(=O)(=O)Nc1noc2cc(Oc3ccccn3)c3c(c12)OCCC3` [Compound 28, 2,4-dimethoxy-N-(5-(pyridin-2-yloxy)-3,4-dihydro-2H-chromeno[8,7-d]isoxazol-9-yl)pyridine-3-sulfonamide], in series [1], the efflux ratio at 2 h, 2 μM worked out at 9.58 and the Papp A→B at 2 h, 2 μM was 2.38 ×10⁻⁶ cm/s. The molecule further showed an IC50 on KAT6A of 10 to 100 nM.

On to `COc1cccc(OC)c1S(=O)(=O)Nc1noc2cc(Oc3ccccn3)cc(OC(F)F)c12` [Compound 22, N-(4-(difluoromethoxy)-6-(pyridin-2-yloxy)benzo[d]isoxazol-3-yl)-2,6-dimethoxybenzenesulfonamide], for which, in series [1], the efflux ratio at 2 h, 2 μM turned out to be 6.87 and the Papp A→B at 2 h, 2 μM came to 3.45 ×10⁻⁶ cm/s. For the same molecule, the IC50 at KAT6A was in the range of 10 to 100 nM.

In the case of `COc1cccc(OC)c1S(=O)(=O)Nc1noc2cc(Oc3ccccn3)cc(OC)c12` [Compound 9, 2,6-dimethoxy-N-(4-methoxy-6-(pyridin-2-yloxy)benzo[d]isoxazol-3-yl)benzenesulfonamide], in series [1], the efflux ratio at 2 h, 2 μM was found to be 3.66 and the Papp A→B at 2 h, 2 μM turned out to be 11.8 ×10⁻⁶ cm/s. In addition, the IC50 at KAT6A was in the range of 10 to 100 nM.

Turning to `COc1ccccc1S(=O)(=O)Nc1noc2cc(Oc3nccs3)cc(OCF)c12` [Compound 56, N-(4-(fluoromethoxy)-6-(thiazol-2-yloxy)benzo[d]isoxazol-3-yl)-2-methoxybenzenesulfonamide], in series [1], the efflux ratio at 2 h, 2 μM worked out at 2.84 and the Papp A→B at 2 h, 2 μM came out at 5.28 ×10⁻⁶ cm/s. This molecule also showed an IC50 on KAT6A of under 10 nM.

In turn, `COc1cccc(OC)c1S(=O)(=O)Nc1noc2cc(Oc3ccccn3)c3c(c12)OCCC3` [Compound 24, 2,6-dimethoxy-N-(5-(pyridin-2-yloxy)-3,4-dihydro-2H-chromeno[8,7-d]isoxazol-9-yl)benzenesulfonamide] yielded a kinetic solubility at 24 h in series [2] of 189 µM (≈ 91.4 µg/mL). Further, in series [1], the efflux ratio at 2 h, 2 μM stood at 3.2 and the Papp A→B at 2 h, 2 μM came out at 12.9 ×10⁻⁶ cm/s. Also, the IC50 at KAT6A was under 10 nM.

Regarding `COc1ccccc1S(=O)(=O)Nc1noc2cc(Sc3nccs3)cc(OC)c12` [Compound 67, 2-methoxy-N-(4-methoxy-6-(thiazol-2-ylthio)benzo[d]isoxazol-3-yl)benzenesulfonamide], in series [1], the efflux ratio at 2 h, 2 μM stood at 1.4 and the Papp A→B at 2 h, 2 μM was determined as 10.9 ×10⁻⁶ cm/s. Further, the IC50 at KAT6A lay in the range of 10 to 100 nM.

Turning to `COc1cccc(OC)c1S(=O)(=O)Nc1noc2cc(Sc3nccs3)cc(OC)c12` [Compound 66, 2,6-dimethoxy-N-(4-methoxy-6-(thiazol-2-ylthio)benzo[d]isoxazol-3-yl)benzenesulfonamide], in series [1], the efflux ratio at 2 h, 2 μM was 4.25 and the Papp A→B at 2 h, 2 μM was determined as 6.83 ×10⁻⁶ cm/s. This molecule yielded an IC50 against KAT6A of under 10 nM.

In turn, `COc1cccc(OC)c1S(=O)(=O)Nc1noc2cc(Cn3cccn3)cc(OC)c12` [PF-9363, reference compound] displayed a Papp A→B at 2 h, 2 μM in series [1] of 0.628 ×10⁻⁶ cm/s.

In turn, `COc1cc(C)nc(OC)c1S(=O)(=O)Nc1noc2cc(Oc3nccs3)cc(OC)c12` [Compound 57, 2,4-dimethoxy-N-(4-methoxy-6-(thiazol-2-yloxy)benzo[d]isoxazol-3-yl)-6-methylpyridine-3-sulfonamide] returned a Papp A→B at 2 h, 2 μM in series [1] of 3.38 ×10⁻⁶ cm/s. For the same molecule, the IC50 on KAT6A was under 10 nM.

On to `COc1cccc(OC)c1S(=O)(=O)Nc1noc2cc(Oc3nccs3)cc(OC)c12` [Compound 59, 2,6-dimethoxy-N-(4-methoxy-6-(thiazol-2-yloxy)benzo[d]isoxazol-3-yl)benzenesulfonamide], for which, in series [1], the efflux ratio at 2 h, 2 μM is 4.53 and the Papp A→B at 2 h, 2 μM is 6.2 ×10⁻⁶ cm/s. For the same molecule, the IC50 against KAT6A is under 10 nM.

In the case of `COc1cccc(OC)c1S(=O)(=O)Nc1noc2cc(Oc3nccs3)c3c(c12)OCCCC3` [Compound 62, 2,6-dimethoxy-N-(6-(thiazol-2-yloxy)-2,3,4,5,9,10-hexahydrooxepino[3′,2′:5,6]benzo[1,2-d]isoxazol-10-yl)benzenesulfonamide], in series [1], the efflux ratio at 2 h, 2 μM was 3.16 and the Papp A→B at 2 h, 2 μM turned out to be 10.6 ×10⁻⁶ cm/s. Besides, the IC50 on KAT6A is under 10 nM.

Take `COc1cccc(OC)c1S(=O)(=O)Nc1noc2cc(Cc3ccccn3)c3c(c12)OCCC3` [Compound 46, 2,6-dimethoxy-N-(5-(pyridin-2-ylmethyl)-3,4-dihydro-2H-chromeno[8,7-d]isoxazol-9-yl)benzenesulfonamide]: the kinetic solubility at 24 h in series [2] worked out at 3.34 µM (≈ 1.61 µg/mL). Moreover, in series [1], the efflux ratio at 2 h, 2 μM was 15.3 and the Papp A→B at 2 h, 2 μM is 2.66 ×10⁻⁶ cm/s. On KAT6A, this molecule yielded an IC50 of under 10 nM.

In the case of `COc1cccc(OC)c1S(=O)(=O)Nc1noc2cc(Oc3ccccn3)c3c(c12)OCC3` [Compound 23, 2,6-dimethoxy-N-(4-(pyridin-2-yloxy)-2,3-dihydrobenzofuro [7,6-d]isoxazol-8-yl)benzenesulfonamide], in series [1], the efflux ratio at 2 h, 2 μM turned out to be 14.2 and the Papp A→B at 2 h, 2 μM was 1.3 ×10⁻⁶ cm/s. The same molecule displayed a 50% inhibitory concentration (IC50) on KAT6A of under 10 nM.

For the molecule `COc1cccc(OC)c1S(=O)(=O)Nc1noc2cc(Cc3nccs3)c3c(c12)OCCC3` [Compound 47], the kinetic solubility at 24 h in series [2] came out at 12.1 µM (≈ 5.9 µg/mL). Besides, in series [1], the efflux ratio at 2 h, 2 μM was 12.3 and the Papp A→B at 2 h, 2 μM was 3.53 ×10⁻⁶ cm/s. The molecule further came in with an IC50 on KAT6A of under 10 nM.

`COc1ccccc1S(=O)(=O)Nc1noc2cc(Oc3nccs3)c3c(c12)OCCC3` [Compound 61, 2-methoxy-N-(5-(thiazol-2-yloxy)-3,4-dihydro-2H-chromeno[8,7-d]isoxazol-9-yl)benzenesulfonamide]: in series [1], the efflux ratio at 2 h, 2 μM came out at 1.76 and the Papp A→B at 2 h, 2 μM came to 9.38 ×10⁻⁶ cm/s. At KAT6A, this molecule gave an IC50 of under 10 nM.

On to `COc1cccc(OC)c1S(=O)(=O)Nc1noc2cc(Oc3nccs3)cc(OCF)c12` [Compound 58], for which, in series [1], the efflux ratio at 2 h, 2 μM came out at 6.17 and the Papp A→B at 2 h, 2 μM turned out to be 5.14 ×10⁻⁶ cm/s. Moreover, the IC50 against KAT6A was under 10 nM.

As to `COc1cc(C)nc(OC)c1S(=O)(=O)Nc1noc2cc(Oc3nccs3)c3c(c12)OCCCC3` [Compound 64], in series [1], the efflux ratio at 2 h, 2 μM is 2.82 and the Papp A→B at 2 h, 2 μM was determined as 9 ×10⁻⁶ cm/s. For the same molecule, on KAT6A, the IC50 is under 10 nM.

Consider `COc1ccccc1S(=O)(=O)Nc1noc2cc(Oc3nccs3)cc(OC)c12` [Compound 60, 2-methoxy-N-(4-methoxy-6-(thiazol-2-yloxy)benzo[d]isoxazol-3-yl)benzenesulfonamide], for which, in series [1], the efflux ratio at 2 h, 2 μM came out at 1.33 and the Papp A→B at 2 h, 2 μM turned out to be 13.7 ×10⁻⁶ cm/s. The molecule further registered an IC50 against KAT6A of under 10 nM.

With `COc1cc(C)nc(OC)c1S(=O)(=O)Nc1noc2cc(Oc3nccs3)cc(OCF)c12` [Compound 55, N-(4-(fluoromethoxy)-6-(thiazol-2-yloxy)benzo[d]isoxazol-3-yl)-2,4-dimethoxy-6-methylpyridine-3-sulfonamide], in series [1], the efflux ratio at 2 h, 2 μM came out at 12.3 and the Papp A→B at 2 h, 2 μM was 1.46 ×10⁻⁶ cm/s. This molecule displayed an IC50 on KAT6A of 10 to 100 nM.

Consider `COc1cccc(OC)c1S(=O)(=O)Nc1noc2cc(Cn3cccn3)c3c(c12)OCCCC3` [Compound 19], for which, in series [1], the efflux ratio at 2 h, 2 μM came out at 13.2 and the Papp A→B at 2 h, 2 μM came to 3.47 ×10⁻⁶ cm/s. The molecule also displayed an IC50 against KAT6A of under 10 nM.

For the molecule `COc1cc(C)nc(OC)c1S(=O)(=O)Nc1noc2cc(Sc3nccs3)cc(OC)c12` [Compound 68, 2,4-dimethoxy-N-(4-methoxy-6-(thiazol-2-ylthio)benzo[d]isoxazol-3-yl)-6-methylpyridine-3-sulfonamide], in series [1], the efflux ratio at 2 h, 2 μM came out at 9.74 and the Papp A→B at 2 h, 2 μM came to 2.29 ×10⁻⁶ cm/s. The molecule further had an IC50 against KAT6A of 10 to 100 nM.
